We go through 22 molecules from patent EP0510036B1, “2-SUBSTITUTED 4,5-DIPHENYL-IMIDAZOLES” (RHONE-POULENC RORER S.A., priority 1990, dated 1991).

Test [1] has as its system acyl coenzyme-A:cholesterol-O-acyl transferase (ACAT; EC 2.3.1.26). As to the kind of experiment: ACAT inhibition in rat liver microsomes incubated with radiolabelled oleoyl-CoA. To be noted: liver microsomes of rats fed 0.5%w/w cholesterol and 0.25%w/w cholic acid for 7 days; for In-vitro % Inhibition at 1»g/ml: compound at 1»g/ml; for In-vitro % Inhibition at 0.5»g/ml: compound at 0.5»g/ml. Format: biochemical. As for the experimental part:
In assays performed in-vitro, microsomes, obtained from the livers of rats fed on a diet supplemented with 0.5%w/w cholesterol and 0.25%w/w cholic acid for 7 days, were incubated with radiolabelled oleoyl-CoA in the presence of compounds according to the invention at a concentration of 0.5 or 1 »g/ml.
For orientation: Liver microsomes are vesicles of endoplasmic reticulum, rich in cytochrome P450 enzymes.

Test [2] relates to plasma cholesterol concentrations. As to the kind of experiment: Inhibition of increases in plasma cholesterol in cholesterol-fed rats. Format: in vivo. To be noted: diet supplemented by 0.03% w/w of test compound, measured after 3 days, relative to control animals.

On to `c1ccc(-c2nc(SCCn3ccnc3)[nH]c2-c2ccccc2)cc1` [Compound 1G], for which, in test [1], the “In-vitro % Inhibition at 1»g/ml” value was 86%.
With `Cl.Cn1ccnc1CSc1nc(-c2ccccc2)c(-c2ccccc2)[nH]1` [Compound 1JA, 2-[(1-methylimidazol-2-yl)methylthio]-4,5-diphenylimidazole hydrochloride], in test [1], the “In-vitro % Inhibition at 1»g/ml” value stood at 82%. Moreover, the “In-vivo % Inhibition” value in test [2] is 23%.
Consider `c1ccc(-c2nc(SCCCn3ccnc3-c3ccccc3)[nH]c2-c2ccccc2)cc1` [Compound 1N, 2-[3-(2-phenylimidazol-1-yl)propylthio]-4,5-diphenylimidazole], for which the “In-vitro % Inhibition at 0.5»g/ml” value in test [1] stood at 57%.
As to `c1ccc(-c2nc(SCCCn3ccnc3)[nH]c2-c2ccccc2)cc1` [Compound 1H, 2-[3-(imidazol-1-yl)propylthio]-4,5-diphenylimidazole], the “In-vitro % Inhibition at 1»g/ml” value in test [1] is 80%.
The same measure, in the same setting: then `c1ccc(-c2nc(SCCCn3cccn3)[nH]c2-c2ccccc2)cc1` [Compound 1B, 2-[3-(pyrazol-1-yl)propylthio]-4,5-diphenylimidazole], with 83%.
Turning to `c1ccc(-c2nc(SCCCCn3cnnn3)[nH]c2-c2ccccc2)cc1` [Compound 1S, 2-[4-(tetrazol-1-yl)butylthio]-4,5-diphenylimidazole], the “In-vitro % Inhibition at 0.5»g/ml” value in test [1] worked out at 84%. In addition, in test [2], the “In-vivo % Inhibition” value was 41%.
For the molecule `c1ccc(-c2nc(SCCCn3ncnn3)[nH]c2-c2ccccc2)cc1` [Compound 1R, 2-[3-(tetrazol-2-yl)propylthio]-4,5-diphenylimidazole], in test [1], the “In-vitro % Inhibition at 1»g/ml” value is on record as 80%.
Consider `c1ccc(-c2nc(SCCCCCn3cncn3)[nH]c2-c2ccccc2)cc1` [Compound 1F, 2-[5-(1,2,4-triazol-1-yl)pentylthio]-4,5-diphenylimidazole], for which the “In-vitro % Inhibition at 1»g/ml” value in test [1] came to 92%. Further, the “In-vivo % Inhibition” value in test [2] is listed as 74%.
For the molecule `Cc1nccn1CCCSc1nc(-c2ccccc2)c(-c2ccccc2)[nH]1` [Compound 1A, 2-[3-(2-methylimidazol-1-yl)propylthio]-4,5-diphenylimidazole], the “In-vitro % Inhibition at 1»g/ml” value in test [1] stood at 90%. For the same molecule, the “In-vivo % Inhibition” value in test [2] came to 64%.
Take `c1ccc(-c2nc(SCCCCCCn3cncn3)[nH]c2-c2ccccc2)cc1` [Compound 1L, 2-[6-(1,2,4-triazol-1-yl)hexylthio]-4,5-diphenylimidazole]: the “In-vitro % Inhibition at 1»g/ml” value in test [1] was determined as 91%.
As to `c1ccc(-c2nc(SCc3ccncc3)[nH]c2-c2ccccc2)cc1` [Compound 1U, 2-[pyrid-4-ylmethylthio]-4,5-diphenylimidazole], the “In-vitro % Inhibition at 1»g/ml” value in test [1] was determined as 71%.
With `Cc1cc(C)n(CCCSc2nc(-c3ccccc3)c(-c3ccccc3)[nH]2)n1` [Compound 1P, 2-[3-(3,5-dimethylpyrazol-1-yl)propylthio]-4,5-diphenylimidazole], in test [1], the “In-vitro % Inhibition at 0.5»g/ml” value is on record as 87%.
Regarding `c1ccc(-c2nc(SCCCn3cnnn3)[nH]c2-c2ccccc2)cc1` [Compound 1Q, 2-[3-(tetrazol-1-yl)propylthio]-4,5-diphenylimidazole], the “In-vitro % Inhibition at 1»g/ml” value in test [1] is listed as 88%.
Regarding `c1ccc(Cn2ccnc2CSc2nc(-c3ccccc3)c(-c3ccccc3)[nH]2)cc1` [Compound 1K, 2-[(1-benzylimidazol-2-yl)methylthio]-4,5-diphenylimidazole], in test [1], the “In-vitro % Inhibition at 1»g/ml” value is given as 57%.
The same measure, in the same setting: to `c1ccc(-c2nc(SCCCn3cncn3)[nH]c2-c2ccccc2)cc1` [Compound 1D, 2-[3-(1,2,4-triazol-1-yl)propylthio]-4,5-diphenylimidazole] belongs 84%.
Regarding `c1ccc(-c2nc(SCCCCn3ncnn3)[nH]c2-c2ccccc2)cc1` [Compound 1T, 2-[4-(tetrazol-2-yl)butylthio]-4,5-diphenylimidazole], the “In-vitro % Inhibition at 0.5»g/ml” value in test [1] is 74%.
As for `c1ccc(-c2nc(SCCCCn3cncn3)[nH]c2-c2ccccc2)cc1` [Compound 1E, 2-[4-(1,2,4-triazol-1-yl)butylthio]-4,5-diphenylimidazole], the “In-vitro % Inhibition at 1»g/ml” value in test [1] is reported as 86%. Moreover, the “In-vivo % Inhibition” value in test [2] worked out at 53%.
Turning to `CC(Sc1nc(-c2ccccc2)c(-c2ccccc2)[nH]1)n1ccnc1` (racemic) [Compound 1I, (±)-2-[1-(imidazol-1-yl)ethylthio]-4,5-diphenylimidazole], the “In-vitro % Inhibition at 1»g/ml” value in test [1] is on record as 53%.
In the case of `Cc1nccn1CCCCSc1nc(-c2ccccc2)c(-c2ccccc2)[nH]1` [Compound 1M, 2-[4-(2-methylimidazol-1-yl)butylthio]-4,5-diphenylimidazole], the “In-vitro % Inhibition at 0.5»g/ml” value in test [1] is reported as 87%. In test [2], the “In-vivo % Inhibition” value stood at 26%.
Take `Cc1ncc([N+](=O)[O-])n1CCSc1nc(-c2ccccc2)c(-c2ccccc2)[nH]1` [Compound 1O, 2-[2-(2-methyl-5-nitroimidazol-1-yl)ethylthio]-4,5-diphenylimidazole]: in test [1], the “In-vitro % Inhibition at 0.5»g/ml” value is reported as 82%.
Take `Cn1ccnc1CSc1nc(-c2ccccc2)c(-c2ccccc2)[nH]1` [Compound 1J, 2-[(1-methylimidazol-2-yl)methylthio]-4,5-diphenylimidazole]: the “In-vitro % Inhibition at 1»g/ml” value in test [1] amounted to 85%.
The same measure, in the same setting: then `c1ccc(-c2nc(SCCn3cncn3)[nH]c2-c2ccccc2)cc1` [Compound 1C, 2-[2-(1,2,4-triazol-1-yl)ethylthio]-4,5-diphenylimidazole], with 88%.
